From US20200155555A1, “VITAMIN RECEPTOR DRUG DELIVERY CONJUGATES FOR TREATING INFLAMMATION” (Endocyte, Inc., priority 2007, published 2020)
Where “and” joins values, the source holds several entries; their conditions need not be identical. Identical values can stand only once.

How the values were obtained:
RAW264.7 cells = test: XTT cell viability / proliferation assay; assay type: cell-based, murine
Method: After 2 h incubation, the drug-containing media were replaced and the cells were allowed to incubate further for 70 h. Four hours prior to the end of incubation, LPS was added to the treated cells at a final concentration of 100 ng/mL. 100 μL of the culture supernatants were collected for TNF-α analysis using a commercial ELISA kit.
RAW264.7 cells in 96-well plates were treated with vehicle (culture medium) or 10-fold serial dilutions of EC0932 without or with 100-fold excess free folate. The drug-containing medium was replaced after 2 h treatment and the cells were allowed to incubate further in standard medium for 70 h. Four hours prior to the end of incubation, LPS was added to the treated cells at a final concentration of 100 ng/mL. […] The cell viability was assessed by adding XTT (2,3-bis(2-methoxy-4-nitro-5-sulfo-phenyl)-2H-tetrazolium-5-carboxanilide) to the remaining medium for an additional 4 h following the manufacturer's instructions (Roche Applied Science, Indianapolis, Ind.).
At 4 h before the end of incubation, LPS (100 ng/ml) was added to the culture medium to stimulate cytokine production.

[1] = Plasma pharmacokinetics after a single s.c. dose of EC0746 or aminopterin
Method: Female Lewis rats with rounded tip jugular vein catheters (Harlan) were fed regular rodent diet and used in this study. The animals were given a single subcutaneous dose of EC0746 at 500 nmol/kg. Whole blood samples (300 μl) were collected from the animals at the following time points: 1 min, 10 min, 30 min, 1 h, 2 h, 3 h, 4 h, and 8 h after injection. The blood samples were placed into anti-coagulant tubes containing 1.7 mg/mL of K3-EDTA and 0.35 mg/mL of N-Maleoyl-beta-alanine (0.35 mg/mL). Plasma samples were obtained by centrifugation for 3 min at ˜2,000 g and stored at −80° C. The amount of EC0746 and its released base drugs (EC0470 & aminopterin) were determined by HPLC using the EC0746 injection solution as the standard (see FIG. 14). […] A similar method was used to determine the plasma pharmacokinetics of aminopterin (see FIG. 15).
Thus, the plasma concentrations of EC0746 and two primary metabolites, AMT and AMT hydrazide, were determined by LC/MS/MS after a single subcutaneous EC0746 administration. […] For comparison, the pharmacokinetics of subcutaneously dosed AMT (500 nmol/kg) was also examined (FIG. 33B).

[2] = Maximum tolerated dose (MTD) in healthy folate-deficient rats; assay type: in vivo
Method: Healthy rats were administered a subcutaneous injection of the indicated dose of aminopterin or EC0746 biweekly for 2 weeks; control animals, no treatment, 100 nmole/kg aminopterin, 50 nmole/kg aminopterin, 500 nmole/kg EC0746, or 2000 nmole/kg EC0746. The animals were weighed daily. See FIG. 16A, B. A dose of 0.1 μmol/kg of aminopterin in folate deficient rats is above the MTD; therefore, the projected MTD of EC0746 would be <0.5 μmol/kg based solely on ˜20% free drug release shown in the previous Example. However, the MTD of EC0746 is actually 2.0 μmol/kg, which is equivalent to 0.4 μmol/kg, or—8× higher than the MTD for free aminopterin. On a molar basis for total aminopterin, the MTD is 40× higher. The therapeutic index (MTD for healthy animals/ED50 for treatment of adjuvant-induced arthristis in female Lewis rats) for EC746 is about 9.5 (2000/210).
Since the toxicity of antifolates can be easily masked by rodent diets enriched with folate, healthy rats on a folate-deficient diet (Harlan) were used to determine the maximum-tolerated-dose levels (MTD) of EC0746, AMT and MTX. The animals were given biweekly injections of EC0746, AMT, and MTX for two weeks. The MTD dose was defined as the dose that had caused at least 13-14% weight loss combined with clinical signs of stress and at least one animal in the >MTD dose group needed to be euthanized. Standard hematologic and blood chemistry parameters were examined as needed along with histopathology. The MTDs of EC0746, MTX and AMT were determined to be 2000, 1000, and 50 nmol/kg, respectively. At above the MTD dose level, the main toxicities of EC0746 were similar to those of AMT and MTX, including manifested gastrointestinal distress (diarrhea), swollen muzzle, immunosuppression (bone marrow, thymus), low white-blood-cell count, low platelet count, and infections. […] Overall, EC0746 was approximately 40-fold less toxic than AMT and 2-fold less toxic than MTX on an equimolar basis in these folate-deficient animals; however, its toxicity profile at above MTD levels was not dissimilar from that of AMT and MTX.

[3] = molecular target: folate receptors (FR-α) of KB cells (Homo sapiens, UniProt P15328); conditions: competitive binding with 3H-folic acid, FR-α positive KB cells
[4] = molecular target: folate-receptor-beta positive CHO-FR-β cells (Homo sapiens, UniProt P14207); conditions: displacement of 3H-folic acid
[5] = test system: rats with adjuvant-induced arthritis (AIA); test: Adjuvant-induced arthritis (AIA) model; conditions: for Splenomagly (% increase in spleen weight relative to healthy rats) / % Inhibition in paw edema / % Weight loss: AIA rats; for % Weight loss: Day 24 relative to first day of treatment
Method: Female Lewis rats were fed a folate-deficient diet (Harlan Teklad, Indianapolis, Ind.) for 9-10 days prior to arthritis induction. The adjuvant-induced arthritis (AIA) was induced by intradermal inoculation (at the base of tail) of 0.5 mg of heat-killed Mycobacteria butyricum (BD Diagnostic Systems, Sparks, Md.) in 100 μL light mineral oil (Sigma). Ten days after arthritis induction, paw edema in rats was assessed using a modified arthritis scoring system: 0=no arthritis; 1=swelling in one type of joint; 2=swelling in two types of joint; 3=swelling in three types of joint; 4=swelling of the entire paw. A total score for each rat is calculated by summarizing the scores for each of the four paws, giving a maximum score of 16 for each rat. On Day 10 post arthritis induction, rats with a total arthritis score of ≥2 were removed from the study and the remaining rats were distributed evenly across the control and treatment groups (n=5 for all groups except that n=2-3 for healthy controls). All treatments started on Day 10 unless mentioned otherwise. […]
Rats with adjuvant arthritis were treated subcutaneously with EC0932 (250 nmol/kg) in the absence or presence of 500-fold excess of EC0923 (125 μmol/kg) on days 10, 13, 17, and 20 post arthritis induction. The animals in the healthy and arthritis control groups were left untreated. The arthritis scores and animal body weights were recorded three times a week (see FIG. 19A, B). At the completion of study (day 24), the rats were euthanized by CO2 asphyxiation and processed for paw and spleen weights (see FIG. 20A, B).
The rat adjuvant induced arthritis (AIA) model resembles the characteristics of RA in humans and has been widely used to study the impact of novel anti-inflammatory agents.

[6] = single sc dose of EC0746, 500 nmole/kg, rats
[7] = etanercept s.c. 10 mg/kg once every 3 days

Sequence of folate receptors (FR-α) of KB cells (P15328 25-234): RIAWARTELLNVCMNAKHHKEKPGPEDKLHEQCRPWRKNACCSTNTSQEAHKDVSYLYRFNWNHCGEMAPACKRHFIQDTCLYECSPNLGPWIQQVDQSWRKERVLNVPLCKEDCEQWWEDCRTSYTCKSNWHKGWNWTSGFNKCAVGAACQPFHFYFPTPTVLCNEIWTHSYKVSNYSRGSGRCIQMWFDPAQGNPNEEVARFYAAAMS
Sequence of folate-receptor-beta positive CHO-FR-β cells (P14207 17-230): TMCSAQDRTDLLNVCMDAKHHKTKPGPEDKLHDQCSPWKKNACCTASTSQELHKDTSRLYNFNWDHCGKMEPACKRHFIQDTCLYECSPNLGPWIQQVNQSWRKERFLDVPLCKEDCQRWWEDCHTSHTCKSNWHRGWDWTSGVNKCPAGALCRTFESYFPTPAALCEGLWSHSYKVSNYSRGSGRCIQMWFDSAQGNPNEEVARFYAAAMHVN

Compound: NNC(=O)CC[C@H](NC(=O)c1ccc(NCc2cnc3nc(N)nc(N)c3n2)cc1)C(=O)O [EC0470, aminopterin gamma-hydrazide]
- potency on cell proliferation and LPS-stimulated TNF-α production (RAW264.7 cells; 72 h incubations of RAW264.7 macrophages): equally potent
- delay of peak plasma appearance from the EC0746 Cmax ([1]; EC0746-dosed rats, sc 500 nmol/kg): 30 min
- Tmax of released base drug in plasma ([1]; after single sc dose of EC0746, 500 nmol/kg, rats): ~60 min

Compound: N=c1[nH]c(N)nc2ncc(CNc3ccc(C(=O)N[C@@H](CCC(=O)NNC(=O)OCCSSC[C@H](NC(=O)[C@H](CCC(=O)NC[C@H](O)[C@@H](O)[C@H](O)[C@H](O)CO)NC(=O)[C@H](CCC(=O)O)NC(=O)[C@H](CCC(=O)NC[C@H](O)[C@@H](O)[C@H](O)[C@H](O)CO)NC(=O)[C@H](CCC(=O)O)NC(=O)[C@H](CCC(=O)NC[C@H](O)[C@@H](O)[C@H](O)[C@H](O)CO)NC(=O)CC[C@H](NC(=O)c4ccc(NCc5cnc6nc(N)[nH]c(=O)c6n5)cc4)C(=O)O)C(=O)O)C(=O)O)cc3)nc12 [EC0746]
- EC50 (RAW264.7 cells; 2 h treatment, then 70-72 h in drug-free medium, read-out: EC50 (ED50), viability/proliferation of RAW264.7 cells, XTT assay): 0.3 nM and ~0.3 nM
- bioavailability after subcutaneous administration ([1]; rats): bioavailable after subcutaneous administration
- elimination half-life of EC0746 ([1]; single sc dose of EC0746, 500 nmol/kg, rats): ~35 min
- Area Under Curve for free drug (aminopterin+aminopterin hydrazide) [1, 6]: 7.3 nmol·min/mL
- Cmax for free drug (aminopterin+aminopterin hydrazide) [1, 6]: 34 nM
- Cmax for free drug as % of the total dose [1, 6]: 9.6%
- time of Cmax for free drug (aminopterin+aminopterin hydrazide) [1, 6]: 60 min
- therapeutic index (MTD for healthy animals/ED50 in AIA) ([2]; 2000/210): about 9.5
- MTD relative to MTD for free aminopterin, based on ~20% free drug release (0.4 μmol/kg equivalent) ([2]; rat, in vivo): 8 ×
- MTD relative to free aminopterin on a molar basis for total aminopterin ([2]; rat, in vivo): 40 ×
- gastrointestinal-associated toxicities at MTD dose ([2]; rats): showed less gastrointestinal-associated toxicities than AMT and MTX
- Relative affinity to folate receptors (folic acid set as 1) [3]: 0.5
- Relative affinity to folate receptors (folic acid set as 1) [4]: 0.27

Compound: Nc1nc2ncc(CNc3ccc(C(=O)N[C@@H](CCC(=O)N[C@H](CC(=O)O)C(=O)N[C@H](CC(=O)O)C(=O)O)C(=O)O)cc3)nc2c(=O)[nH]1 [EC0923]
- effect on development or severity of AIA ([5]; EC0923 alone, 125 μmol/kg/dose biweekly 2 weeks): did not have any impact on the development or severity of the disease
- dorsal to ventral paw thickness ([5]; EC0923 alone, 125 μmol/kg/dose biweekly, arthritic control ~9.8, healthy ~5.8): ~9.4 mm
- mean sum of histology scores (maximum 20) ([5]; EC0923 alone, 125 μmol/kg/dose biweekly, arthritic control ~15.3): 14.2
- Relative affinity to folate receptors (folic acid set as 1) [3]: 0.84

Compound: Nc1nc(N)c2nc(CNc3ccc(C(=O)N[C@@H](CCC(=O)O)C(=O)O)cc3)cnc2n1 [aminopterin]
- lethality to AIA rats ([5]; AMT mixed with free folic acid (1:1), 500 nmol/kg/dose, biweekly): 100%
- delay of peak plasma appearance from the EC0746 Cmax ([1]; rat, in vivo, sc, 500 nmol/kg): 30 min
- MTD at 2 weeks ([2]; rat, in vivo, folate deficient rats, sc biweekly for 2 weeks): < 0.1 µmol/kg

Compound: CN(Cc1cnc2nc(N)nc(N)c2n1)c1ccc(C(=O)N[C@@H](CCC(=O)O)C(=O)O)cc1 [methotrexate]
- Splenomagly (% increase in spleen weight relative to healthy rats) ([5]; oral, 250 nmol/kg biw): 42 ± 17%
- % Inhibition in paw edema ([5]; oral, 250 nmol/kg biw, Day 24): 70 ± 5%
- % Weight loss ([5]; oral, 250 nmol/kg biw): −14 ± 2%
- % Weight loss ([5]; oral, 1650 nmol/kg qw): −10 ± 2%
- % Inhibition in paw edema ([5]; oral, 1650 nmol/kg qw, calculated based on arthritis scores on Day 24): 47 ± 10 %
- Splenomagly (% increase in spleen weight relative to healthy rats) ([5]; sc, 250 nmol/kg biw): 24 ± 3%
- % Inhibition in paw edema ([5]; sc, 250 nmol/kg biw, Day 24): 78 ± 10%
- % Weight loss ([5]; sc, 250 nmol/kg biw): −2 ± 4%
- Splenomagly (% increase in spleen weight relative to healthy rats) ([5]; sc, 500 nmol/kg biw): 20 ± 4%
- % Inhibition in paw edema ([5]; sc, 500 nmol/kg biw, Day 24): 88 ± 7%
- % Weight loss ([5]; sc, 500 nmol/kg biw): −2 ± 7%
- decrease in dorsal to ventral paw thickness ([5]; oral MTX 250 nmol/kg biweekly): 63%
- decrease in summed histological score ([5]; oral MTX 250 nmol/kg biweekly): 73%
- reductions in all scored histology parameters vs untreated controls ([5]; oral MTX 250 nmol/kg biweekly): 66-84%
- blocking of anti-arthritic activity by folate competitor ([5]; s.c. MTX 250 nmol/kg/dose with 500-fold excess EC0923): not significantly blocked by excess EC0923
- effect on development and severity of arthritis ([5]; s.c. MTX 250 nmol/kg/dose, 2 weeks): significantly improved the development and severity of arthritis
- reduction of local (paw) and systemic (spleen) inflammation ([5]; sc 300 nmol/kg on days 10, 13, 17, 20): similarly active in reducing local (paw) and systemic (spleen) inflammation
- Relative affinity to folate receptors (folic acid set as 1) [3]: 0.018
- Relative affinity to folate receptors (folic acid set as 1) [4]: 0.005

Compound: etanercept
- Splenomagly (% increase in spleen weight relative to healthy rats) ([5]; sc, 10 mg/kg q3d): 42 ± 7%
- % Inhibition in paw edema ([5]; sc, 10 mg/kg q3d, Day 24): 46 ± 9%
- % Weight loss ([5]; sc, 10 mg/kg q3d): −15 ± 2%
- decrease in dorsal to ventral paw thickness [5, 7]: 40%
- decrease in summed histological score [5, 7]: 43%
- reduction in bone resorption (histology) [5, 7]: 55%
- reduction in inflammation (histology) [5, 7]: 42%
